Data from patent US5183821A, “Method for treating leukemias using N-(2-dimethylaminoethyl)-3-amino-1,8-naphthalimide for treating leukemias and solid tumors” (priority 1991, dated 1993).
Entries after “also recorded” stand apart in the source; their conditions may differ.

How the values were obtained:
Colon 38 [1] = experiment: Experiment 14: Colon 38 s.c., saline with Tween-80, female; format: in vivo, Mouse B6 D2 F1 (BDF1)
From the text: (§1) Host: Mouse B6 D2 F1 (BDF1)
(§2) Inoculum Site: Subcutaneous
(§3) Vehicle: Saline with Tween-80
(§4) Treatment schedule (relative to tumor inoculation day): Days 2 and 9
(§5) Day of evaluation (relative to tumor inoculation day): 20
(§6) Parameter: Median tumor weight (MTW) estimated from tumor diameter
(§7) NCI minimal activity criteria: Percent T/C≤42
(§8) Percent T/C: Ratio of test (T) evaluation to control (C) evaluation expressed as a percentage

L-1210 Lymphoid leukemia = experiment: Experiment 7: L-1210 i.p., 10^5 cells, acid diluted with saline, male; format: in vivo, Mouse CD2 F1 (CDF1)
From the text: Host: Mouse CD2 F1 (CDF1)
Tumor: L-1210 Lymphoid leukemia
(§9) Inoculum Site: Intraperitoneal
(§10) Vehicle: Acid diluted with saline
Treatment schedule (relative to tumor inoculation day): daily on days 1-9
Day of evaluation (relative to tumor inoculation day): 30
Parameter: Median survival time (MST) in days
NCI minimal activity criteria: Percent T/C≥125
as §8

LX-1 lung xenograft = experiment: NCI screen, LX-1 lung xenograft, renal capsule (summary); format: in vivo, human tumor xenograft in athymic mice; settings: for Antitumor activity in words: LX-1 lung xenograft
From the text: (§11) The activity of the compound has been evaluated by experiments carried out under the auspices of the Division of Cancer Treatment, National Cancer Institute, employing techniques considered to be reliable indicators of chemotherapeutic utility in the treatment of forms of cancer in human patients. The details of the methodology employed in the reported experiments may be determined with reference to established NCI screening methods.
(§12) In the experiments conducted by the NCI, evaluation of activity is made on the basis of appropriate parameters, such as median survival time (MST) or change in average tumor diameter (CATD)in ocular micrometer units (OMU).

M5076 ovarian carcinoma = experiment: Experiment 21: M5076 i.p., 10^6 cells, acid diluted with saline, female; format: in vivo, Mouse
From the text: Tumor: M5076 ovarian carcinoma
as §9, §10
Treatment schedule (relative to tumor inoculation day): every 4 days for 4 times
Day of evaluation (relative to tumor inoculation day): 60
Parameter: Mean survival time (MST) in days
NCI minimal activity criteria: Percent T/C≥125.
Percent T/C: Ratio of test (T) evaluation to control (C) evaluation expressed as a percentage.

Colon 38 [2] = experiment: NCI screen, Colon 38, subcutaneous (summary); format: in vivo, Mouse; settings: for Antitumor activity in words: colon 38
From the text: as §11, §12

Colon 38 [3] = experiment: Experiment 13: Colon 38 s.c., saline with Tween-80, male; format: in vivo, Mouse B6 D2 F1 (BDF1)
From the text: as §1, §2, §3, §4, §5, §6, §7, §8

Colon 38 [4] = experiment: Experiment 15: Colon 38 s.c., saline with Tween-80, female; format: in vivo, Mouse B6 D2 F1 (BDF1)
From the text: as §1, §2, §3, §4, §5, §6, §7, §8

Colon 38 [5] = experiment: Experiment 12 (first): Colon 38 s.c., saline with Tween-80, male; format: in vivo, Mouse B6 D2 F1 (BDF1)
From the text: as §1, §2, §3
Treatment schedule (relative to tumor inoculation day) days 2 and 9
as §5, §6, §7, §8

leukemia P388 = experiment: NCI studies against leukemia P388 (Appendix 1, MDA and T/C); format: in vivo, murine
From the text: On the other hand, murine transplantable leukemias are a good predictor of anti-leukemia activity in human beings (Kenis "Dose schedules and mode of administration of chemotherapeutic agents in man". Recent Results Cancer Res. 21, 54-61 (1969). Only those tests which use the survival times as an activity parameter are valid as predictors of antileukemia activity in human beings (for instance, leukemia p388 y L-1210), whilst "in vitro" tests (HeLa cells and other) are inappropriate (Llombart-Rodriguez, 1983). NCI data generated in the last years confirm the value of above assertions to compounds of general formula [drawing 1] as described in U.S. Pat. No. 4,204,063.
Experimental results from NCI studies against leukemia P388 are shown in an appendix (Appendix 1). In order to simplify the presentation of results we have extracted from these the minor active dose (MDA) against leukemia P388--for each compound. MDA is defined as the minor dose of the drug that reaches the minimal activity criteria of the NCI. For leukemia P388 this criteria on the basis of survival time is a minimal increase in survival of treated animals over a control resulting in a T/C≥120. In the following table the MDA for 14 examples are presented. In cases where none of the tested doses reached the MDA, the MDA is indicated as "NONE". The column "cytotoxic activity" has been extracted from U.S. Pat. No. 4,204,063. Data are presented in order of the highest to lowest cytotoxic activity.

[6] = 16.00 mg/kg i.p., control MTW outside normal limits
[7] = 32.00 mg/kg i.p., control MTW outside normal limits
[8] = 64.00 mg/kg i.p., control MTW outside normal limits

For `CN(C)CCN1C(=O)c2cccc3cc(N)cc(c23)C1=O` [Example 9, 1H-Benz[de]isoquinoline-1,3(2H)-dione, 5-amino-2-[2-(dimethylamino)ethyl]], the “Median tumor weight (MTW)” value (Colon 38 [1]; 2.00 mg/kg i.p.) was 2141, the “Percent T/C” value (Colon 38 [1]; 2.00 mg/kg i.p.) was 111% and the “Median tumor weight (MTW)” value (Colon 38 [1]; 4.00 mg/kg i.p.) was 1872. The “Percent T/C” value (Colon 38 [1]; 4.00 mg/kg i.p.) was 97%, the “Median tumor weight (MTW)” value (Colon 38 [1]; 8.00 mg/kg i.p.) was 1687 and the “Percent T/C” value (Colon 38 [1]; 8.00 mg/kg i.p.) was 87%. The “Median tumor weight (MTW)” value (Colon 38 [1]; 16.00 mg/kg i.p.) was 2748, the “Percent T/C” value (Colon 38 [1]; 16.00 mg/kg i.p.) was 142% and the “Median tumor weight (MTW)” value (Colon 38 [1]; 32.00 mg/kg i.p.) was 1013. For the same compound, the “Percent T/C” value (Colon 38 [1]; 32.00 mg/kg i.p.) was 52%, the “Median tumor weight (MTW)” value (Colon 38 [1]; 64.00 mg/kg i.p.) was 1132 and the “Percent T/C” value (Colon 38 [1]; 64.00 mg/kg i.p.) was 58%. The “Median survival time (MST)” value (L-1210 Lymphoid leukemia; 1.00 mg/kg i.p.) was 10.4 days, the “Percent T/C” value (L-1210 Lymphoid leukemia; 1.00 mg/kg i.p.) was 99% and the “Median survival time (MST)” value (L-1210 Lymphoid leukemia; 2.00 mg/kg i.p.) was 10.2 days. For the same compound, the “Percent T/C” value (L-1210 Lymphoid leukemia; 2.00 mg/kg i.p.) was 97%, the “Median survival time (MST)” value (L-1210 Lymphoid leukemia; 4.00 mg/kg i.p.) was 10.4 days and the “Percent T/C” value (L-1210 Lymphoid leukemia; 4.00 mg/kg i.p.) was 99%. For the same compound, the “Median survival time (MST)” value (L-1210 Lymphoid leukemia; 8.00 mg/kg i.p.) was 12.4 days, the “Percent T/C” value (L-1210 Lymphoid leukemia; 8.00 mg/kg i.p.) was 118% and the “Median survival time (MST)” value (L-1210 Lymphoid leukemia; 16.00 mg/kg i.p.) was 11.8 days. The “Percent T/C” value (L-1210 Lymphoid leukemia; 16.00 mg/kg i.p.) was 112%, the “Median survival time (MST)” value (L-1210 Lymphoid leukemia; 32.00 mg/kg i.p.) was 8.0 days and the “Antitumor activity in words” value (LX-1 lung xenograft; listed as BIDA) was “No activity was seen”. The “Antitumor activity in words” value (LX-1 lung xenograft; listed as the compound) was “not active”, the “Table II evaluation” value (LX-1 lung xenograft; change in average tumor diameter, 4 tests, full wrapped cell: Activity not confirmed) was “Activity not” and the “Mean survival time (MST)” value (M5076 ovarian carcinoma; 4.50 mg/kg i.p.) was 29,0 days. For the same compound, the “Percent T/C” value (M5076 ovarian carcinoma; 4.50 mg/kg i.p.) was 109%, the “Mean survival time (MST)” value (M5076 ovarian carcinoma; 9,00 mg/kg i.p.) was 28,7 days and the “Percent T/C” value (M5076 ovarian carcinoma; 9,00 mg/kg i.p.) was 107%. The “Mean survival time (MST)” value (M5076 ovarian carcinoma; 18,00 mg/kg i.p.) was 30,8 days, the “Percent T/C” value (M5076 ovarian carcinoma; 18,00 mg/kg i.p.) was 115% and the “Mean survival time (MST)” value (M5076 ovarian carcinoma; 36,00 mg/kg i.p.) was 37,0 days. The “Percent T/C” value (M5076 ovarian carcinoma; 36,00 mg/kg i.p.) was 139%, the “Mean survival time (MST)” value (M5076 ovarian carcinoma; 72,00 mg/kg i.p.) was “Toxic” and the “T/C, growth of s.c. implanted colon 38 tumor” value (Colon 38 [2]; 64 mg/kg i.p.) was 17%. The inhibition at 64 mg/kg (Colon 38 [2]; Mus musculus, 64 mg/kg i.p., read-out: inhibition of growth of s.c. implanted colon 38 tumor) was 83%, the “Antitumor activity in words” value (Colon 38 [2]; listed as BIDA) was “not active” and the “Antitumor activity in words” value (Colon 38 [2]; listed as the compound) was “at least a reproducible minimal activity; also recorded: active”. For the same compound, the “Table II evaluation” value (Colon 38 [2]; median tumor weight, 25 tests, full wrapped cell: Reproducible minimal activity) was “Reproducible minimal”, the “Median tumor weight (MTW)” value (Colon 38 [3]; 16.00 mg/kg i.p.) was 2474 and the “Percent T/C” value (Colon 38 [3]; 16.00 mg/kg i.p.) was 102%. For the same compound, the “Median tumor weight (MTW)” value (Colon 38 [3]; 32.00 mg/kg i.p.) was 1146, the “Percent T/C” value (Colon 38 [3]; 32.00 mg/kg i.p.) was 47% and the “Median tumor weight (MTW)” value (Colon 38 [3]; 64.00 mg/kg i.p.) was 700. For the same compound, the “Percent T/C” value (Colon 38 [3]; 64.00 mg/kg i.p.) was 29%, the “Median tumor weight (MTW)” value (Colon 38 [3]; 128.00 mg/kg i.p.) was “Deaths before evaluation” and the “Median tumor weight (MTW)” value (Colon 38 [4]; [6]) was 2261. For the same compound, the “Percent T/C” value (Colon 38 [4]; [6]) was 108%, the “Median tumor weight (MTW)” value (Colon 38 [4]; [7]) was 1440 and the “Percent T/C” value (Colon 38 [4]; [7]) was 69%. The “Median tumor weight (MTW)” value (Colon 38 [4]; [8]) was 368, the “Percent T/C” value (Colon 38 [4]; [8]) was 17% and the “Median tumor weight (MTW)” value (Colon 38 [4]; 128.00 mg/kg i.p.) was “Deaths before evaluation”. For the same compound, the “Median tumor weight (MTW)” value (Colon 38 [5]; 2.00 mg/kg i.p.) was 685, the “Percent T/C” value (Colon 38 [5]; 2.00 mg/kg i.p.) was 72% and the “Median tumor weight (MTW)” value (Colon 38 [5]; 4.00 mg/kg i.p.) was 775. The “Percent T/C” value (Colon 38 [5]; 4.00 mg/kg i.p.) was 81%, the “Median tumor weight (MTW)” value (Colon 38 [5]; 8.00 mg/kg i.p.) was 861 and the “Percent T/C” value (Colon 38 [5]; 8.00 mg/kg i.p.) was 90%. The “Median tumor weight (MTW)” value (Colon 38 [5]; 16.00 mg/kg i.p.) was 733, the “Percent T/C” value (Colon 38 [5]; 16.00 mg/kg i.p.) was 77% and the “Median tumor weight (MTW)” value (Colon 38 [5]; 32.00 mg/kg i.p.) was 270. For the same compound, the “Percent T/C” value (Colon 38 [5]; 32.00 mg/kg i.p.) was 28%, the “Median tumor weight (MTW)” value (Colon 38 [5]; 64.00 mg/kg i.p.) was 252 and the “Percent T/C” value (Colon 38 [5]; 64.00 mg/kg i.p.) was 26%. The response vs control in vivo at 2 mg/kg (leukemia P388; Mus musculus, P388, read-out: T/C %, dose 2,00 mg/kg) was 137%, the response vs control in vivo at 4 mg/kg (leukemia P388; Mus musculus, P388, read-out: T/C %, dose 4,00 mg/kg) was 142% and the response vs control in vivo at 32 mg/kg (leukemia P388; Mus musculus, P388, read-out: T/C %, dose 32,00 mg/kg) was under 100%. The response vs control in vivo at 65 mg/kg (leukemia P388; Mus musculus, P388, read-out: T/C %, dose 65,00 mg/kg) was under 100%, the minimal effective dose (leukemia P388; Mus musculus, P388, minor active dose reaching T/C≥120) was 2 mg/kg and the “STATUS (activity against leukemia P388)” value (leukemia P388; at the dose of the same line of the appendix table) was “T/C > 120 active”.
